From article PMC10300102, “In vivo inhibition of nuclear ACE2 translocation protects against SARS-CoV-2 replication and lung damage through epigenetic imprinting” (Nature Communications, 2023)
Where a name gives a salt, the structure may show the parent alone. Read-outs that look alike come from different tables or passages of the source.

Assay: In vitro monkey plasma assay
Type: in vitro ADME, cynomolgus monkey
Settings: for remaining at 0.25 h, 2 µM: time 15 min; for remaining at 0.5 h, 2 µM: time 30 min; for remaining at 1 h, 2 µM: time 60 min; for remaining at 2 h, 2 µM: time 120 min
Experimental: Briefly, pooled frozen plasma was thawed at 37 °C prior to experiments. Plasma was centrifuged at 3720 x g for 5 min and any clots were removed. All blanks and working solutions were aliquoted on an Apricot automation workstation (2 μL/well of working solution (100 μM) with 98 μL plasma for NACE2i peptide (CP300638) and control compounds somatostatin acetate and procaine hydrochloride). All reaction plates containing mixtures of NACE2i, somatostatin acetate, and procaine hydrochloride and plasma were incubated at 37 °C in a water bath for 0, 15, 30, 60, 120, 240, and 360 min. Incubation was stopped with 4% H3PO4 and stop solution (200 ng/mL tolbutamide and 200 ng/mL labetalol in MeOH) to precipitate protein. Each plate was sealed and shaken for 20 min and then centrifuged at 3720 x g at 4 °C for 20 min. After centrifugation, the Apricot workstation was used to transfer 150 μL supernatant to each bioanalysis plate, which was then sealed and shaken for 10 min prior to LC-MS/MS analysis as per the manufacturer’s guidelines. LC: Shimadzu LC 30-AD, MS: QTRAP 6500 + , Autosampler: CTC PAL.

[1] = male, monkey, pooled plasma, cynomolgus monkey plasma, n=2
[2] = monkey, plasma (pooled, frozen), cynomolgus monkey plasma, n=2

SMILES | % Remaining (cynomolgus monkey plasma, time 0 min, n=2) | remaining at 0.25 h, 2 µM [1] | remaining at 0.5 h, 2 µM [1] | remaining at 1 h, 2 µM [1] | remaining at 2 h, 2 µM [1] | remaining at 6 h, 2 µM (male, monkey, pooled plasma, cynomolgus monkey plasma, time 360 min, n=2, read-out: % Remaining) | remaining at 6 h, 2 µM (male, monkey, pooled plasma, pooled male cynomolgus monkey plasma, 2 µL of 100 µM working solution + 98 µL plasma, 37 °C, 360 min, LC-MS/MS, read-out: % remaining in plasma after 360 min incubation) | remaining at 0.25 h, 2 µM [2] | remaining at 0.5 h, 2 µM [2] | remaining at 1 h, 2 µM [2] | remaining at 2 h, 2 µM [2] | remaining at 4 h, 2 µM (monkey, plasma (pooled, frozen), cynomolgus monkey plasma, time 240 min, n=2) | remaining at 6 h, 2 µM (monkey, plasma (pooled, frozen), cynomolgus monkey plasma, time 360 min, n=2, read-out: % Remaining) | % remaining in plasma after 360 min incubation (pooled male cynomolgus monkey plasma, 2 µL of 100 µM working solution + 98 µL plasma, 37 °C, 360 min, LC-MS/MS)
CCN(CC)CCOC(=O)c1ccc(N)cc1 [procaine hydrochloride, reference compound] | 100% | 27.3% | 3.07% | 0.813% | 0.381% | 0.0209% | 0% | – | – | – | – | – | – | –
C[C@H](N)C(=O)NCC(=O)N[C@H]1CSSC[C@@H](C(=O)O)NC(=O)[C@H](CO)NC(=O)[C@H]([C@@H](C)O)NC(=O)[C@H](Cc2ccccc2)NC(=O)[C@H]([C@@H](C)O)NC(=O)[C@H](CCCCN)NC(=O)[C@H](Cc2c[nH]c3ccccc23)NC(=O)[C@H](Cc2ccccc2)NC(=O)[C@H](Cc2ccccc2)NC(=O)[C@H](CC(N)=O)NC(=O)[C@H](CCCCN)NC1=O [somatostatin acetate, reference compound] | – | – | – | – | – | – | – | 77.1% | 61.3% | 50.2% | 29% | 18.1% | 3.81% | 3.8%
